Results: patent US20230129866A1 (PureTech LYT 100, Inc., priority 2020, published 2023)

How the values were obtained:
[1] = test system: Primary Mouse Lung Fibroblasts (PMLF); assay: Survival and TGF-β-induced proliferation of Primary Mouse Lung Fibroblasts (MTT); format: cell-based; conditions: 500 μM, 72 hrs, FIG. 3A
Experimental: Primary Mouse lung fibroblast were prepared as follows. One lung was removed from 2 months old male BaIbC Mouse, perfused with sterile PBS, minced and incubated in 2 ml of serum free Dulbecco's Modified Eagle's Medium (DMEM) containing 100 μg/ml of collagenase I for one hour at 37° C. Each sample was centrifuged at 1500 r.p.m (revolution per minute) for 5 minutes, washed three times with PBS and the final cellular pellet was resuspended in DMEM supplemented with 10% serum and Pen/Strep, and incubated in 150 mm plates at 37 °C with 80% humidity and […]. The growth medium was removed and fresh medium was added every day for 10 days.
At the end of 10-day incubation period above, lung fibroblasts were confluent. […] One hundred μL of the growth medium was removed and 20 μL of MTT stock solution (prepared in PBS at 5.5 mg/ml concentration) was added and cells were incubated for 4 hours, then 100 μl of DMSO was added, and absorbance of developed color was monitored at 540-690 nm.

[2] = test system: ICAM-1; vascular hyperpermeability; TGF-β and downstream signaling; assay: Other studies for pirfenidone mechanisms in acute and chronic interstitial lung diseases
L929 cells = assay: Survival of L929 cells (MTT); format: cell-based; conditions: 500 μM, TGFb 5 ng/ml, 72 hrs, FIG. 4A
Experimental: Five thousand L929 cells were plated in completed DMEN and incubated until confluency for 3 days. Medium was removed and complete DMEM containg Prolin (20 μg/ml) and ascorbic acid (10 μM) was added. […] 100 μL of medium was removed, 20 μL MTT solution was added for 4 hrs, then 100 μl of DMSO was added, and absorbance of developed dark pink color was determined at […].

## [2H]C([2H])([2H])c1ccc(=O)n(-c2ccccc2)c1 [LYT-100, 5-(methyl-d3)-1-phenylpyridin-2-(1H)-one]
[1]
  Effect on survival of PMLF alone: did not affect the survival
[2]
  Effect on ICAM-1: downregulates
  Effect on TGF-β and downstream signaling: suppresses
  Effect on vascular hyperpermeability: reduces
L929 cells
  Effect on survival of L929 cells: does not affect survival
